Results: patent US20070244107A1, “Method of Treating Atherosclerosis, Dyslipidemias and Related Conditions” (priority 2004, published 2007)
“Also recorded” adds a separate entry of the source.

System: male C57B16 mice
Experiment: Flushing via laser Doppler procedure in mice
Format: in vivo
Details: relative to nicotinic acid; mouse model
Experimental: To measure flushing, male C57B16 mice (approx. 25 g) are anesthetized using 10 mg/mkg Nembutal sodium. After ten minutes the animal is placed under the laser and the ear is folded back to expose the ventral side. The laser is positioned in the center of the ear and focused to an intensity of 8.4-9.0 V (which is generally approx. 4.5 cm above the ear). Data acquisition is initiated with a 15 by 15 image format, auto interval, 60 images and a 20 sec time delay with a medium resolution. Test compounds are administered following the 10th image via injection into the peritoneal space. Images 1-10 are considered the animal's baseline and data is normalized to an average of the baseline mean intensities.

In the case of `C1Cc2[nH]nc(-c3nnn[nH]3)c2C1` [compound of formula I, 3-(2H-tetrazol-5-yl)-1,4,5,6-tetrahydrocyclopentapyrazole], the flushing effect is reported as “reduced flushing effect relative to nicotinic acid; also recorded: reduced flushing effect relative to nicotinic acid, but flushing is not completely eliminated”.
